Assay [1] relates to porcine islets. The experiment in a line: Static glucose stimulation (SGS): insulin secretion of cultured porcine islets. The assay is classed as cell-based. Conditions: for effect of exposure beyond 24 hrs on insulin production in response to glucose: post isolation.
Assay [2] relates to porcine islets. The description is as above. The assay is classed as cell-based. From the text:
Static glucose stimulation (SGS) is used to assess in vitro function of the porcine islets by exposing them to low and high concentrations of glucose and theophylline. Determination of the in vitro insulin secretory capacity is undertaken on both free islets (after 3 days in culture) and after their subsequent encapsulation or confinement.
Keep the cells 3 days in culture before Static Glucose Stimulation (SGS). SGS involves exposure of the cells to low and high concentration of glucose to check insulin production. Using 0.1 ug/ml concentration add IGF1 and GPE to two plates 24 hours before SGS (day 2 after isolation)

[3] abbreviates: Incubated 24 hrs with 1.0 ug/ml IgF-1.

Regarding IgF-2: insulin-like growth factor II, in the assay on porcine islets [1], the “persistence of increased insulin production post exposure” value is recorded as at most 3 days and the “effect of exposure beyond 24 hrs on insulin production in response to glucose” value was “failed to increase”. Also, in the assay on porcine islets [1] (Incubated 24 hrs With 0.1 ug/ml IgF-2 day 1, second sub-table), the “Insulin secretion In response to 19.4 mM Glucose + 10 mM Theophyline After 3 days culture Post isolation” value is listed as 32 uU/hr/100 IEQ. Besides, the “Insulin secretion In response to 19.4 mM Glucose + 10 mM Theophyline After 3 days culture Post isolation” value in the assay with porcine islets [1] (Incubated 7 days with 0.1 ug/ml IgF-2) is recorded as 38.4 uU/hr/100 IEQ. Also, the “effect on insulin production of porcine islet cells” value in the assay with porcine islets [2] (0.1 μg/ml during culturing, initial exposure of 24 hrs) is reported as “appeared to increase”.
`CCN(CC)CC(=O)Nc1c(C)cccc1C` [Lidocaine, reference compound]: the “increase in insulin secretion in response to glucose challenge” value in the assay with porcine islets [1] (Lidocaine during digestion, after 3 days in culture) turned out to be 3 fold. The “Insulin secretion in response to 19.4 mM Glucose + 10 mM Theophyline After 3 days culture Post isolation” value with porcine islets [1] (islets from Collagenase digestion, with or without 1 mM Lidocaine) was determined as 163.8 uU/hr/100 IEQ.
Regarding “IgF-1: Human Insulin-like Growth Factor I, a potent mitogenic growth factor”, in the assay on porcine islets [1], the “persistence of increased insulin production post exposure” value is at least 14 days. Further, the figures for the “Insulin secretion In response to 19.4 mM Glucose + 10 mM Theophyline, increase Compared to control” value with porcine islets [1] (3 days post IgF-1 Exposure) and with porcine islets [1] (14 days post IgF-1 Exposure) were 1.5-fold increase and 1.3-fold increase, respectively. Further, the “Insulin secretion In response to 19.4 mM Glucose + 10 mM Theophyline 7 days post isolation” value with porcine islets [1] (Incubated 7 days with 0.1 ug/ml IgF-1) was determined as 58 uU/hr/100 IEQ; in the assay with porcine islets [2] (setting [3]) it was 57.5 uU/hr/100 IEQ. Also, the “effect of increasing the concentration in culture on insulin response” value with porcine islets [1] (above the sufficient concentration) is “No further benefit”. In addition, in the assay with porcine islets [1], the “effect of exposure beyond 24 hrs on insulin production in response to glucose” value is reported as “no increased benefit”. Moreover, the “effect of withdrawal of Nicotinamide from the culture media on islet insulin production” value with porcine islets [2] is given as “eliminated the benefit of IgF-1”. Also, the “concentration in culture sufficient to produce optimal insulin secretion during glucose challenge” value in the assay with porcine islets [2] (IgF-1 in culture) stood at 0.1 µg/mL. Besides, in the assay with porcine islets [2] (setting [3]), the “Insulin secretion In response to 19.4 mM Glucose + 10 mM Theophyline After 3 days” value was 56.8 uU/hr/100 IEQ. In addition, in the assay on porcine islets [2] (Incubated 3 days With 0.1 ug/ml IgF-1 Without Nicotinamide), the “Insulin secretion In response to 19.4 mM Glucose + 10 mM Theophyline After 3 days culture Post isolation” value came to 47.6 uU/hr/100 IEQ. Besides, the “increase of insulin response to glucose” value in the assay with porcine islets [2] (porcine islets in culture exposed to IgF-1) was at most 3 fold.

(Values after patent publication US20040014212A1, “Preparation and xenotransplantation or porcine islets” (priority 2000, published 2004).)
